Counter-ions that a name gives are not always drawn.
Tests used:
delta-5-desaturase [1] = biological target: T1, delta-5-desaturase (Rattus norvegicus, UniProt Q920R3); assay: Inhibitory activity on binding of [3H]-labelled Reference Example 1 ligand to delta-5-desaturase (rat liver microsome fraction); details: test compound 10 μM; for inhibition at 10 µM: 3 nM tritiated ligand of Reference Example 1, read-out: Binding inhibitory activity against compound bind to delta-5-desaturase Binding inhibition rate (%) at 10 μM
T1 construct: a rat liver microsome fraction (10 μl) diluted to 3 mg/ml with a microsome buffer; from tissue; host or cells: rat liver microsome fraction
Description: Inhibitory Activity on Binding of N-[2-({4-oxo-3-[4-(2,2,2-trifluoroethoxy)[2,6-^3H2]phenyl]-3,4-dihydrothieno[3,4-d]pyrimidin-2-yl}sulfanyl)ethyl]acetamide (Reference Example 1) to delta-5-desaturase)
All tests were performed at room temperature at 200 μL/well. A rat liver microsome fraction (30 μg/well) was preincubated with a test compound at a final concentration of 10 μM for 15 min in an assay buffer (10 mM Tris-HCl (pH 7.5), 100 mM KCl, 10 mM NaF, 3 mM MgCl2, 0.005% Tween20 and 1 mM GSH). N-[2-({4-oxo-3-[4-(2,2,2-trifluoroethoxy) [2,6-^3H2]phenyl]-3,4-dihydrothieno[3,4-d]pyrimidin-2-yl}sulfanyl)ethyl]acetamide was added to a final concentration of 3 nM and the mixture was incubated for 150 min. For Bound/Free separation, the membrane fraction was added on a GF/C glass filter using a cell harvester. The GF/C glass filter was washed 5 times with 300 μl of ice-cooled assay buffer (without 0.005% Tween) to separate the ligand bound to delta-5-desaturase. 50 μl of MicroScinti 0 was added, and the radioactivity on the filter was measured by TopCount. To evaluate non-specific binding, 10 μM N-[2-({4-oxo-3-[4-(2,2,2-trifluoroethoxy)phenyl]-3,4-dihydrothieno[3,4-d]pyrimidin-2-yl}sulfanyl)ethyl]acetamide was used. The inhibitory rate (%) of the test compound (10 μM) on the binding of N-[2-({4-oxo-3-[4-(2,2,2-trifluoroethoxy) [2,6-^3H2]phenyl]-3,4-dihydrothieno[3,4-d]pyrimidin-2-yl}sulfanyl)ethyl]acetamide to delta-5-desaturase was determined.

delta-5-desaturase [2] = biological target: T2, delta-5-desaturase (Homo sapiens, UniProt O60427); assay: Delta-5-desaturase inhibitory activity using HepG2 cell; format: cell-based; details: test compound 1 μM
T2 construct: endogenous in cells; host or cells: HepG2
Description: Delta-5-Desaturase Inhibitory Activity Using HepG2 Cell
HepG2 was plated on a 96-well plate at 1×10^5 cells/well, and cultured overnight in DMEM (Dulbecco's modified Eagle medium) containing 10% FBS (fetal bovine serum). After washing (200 μL×2) with PBS (phosphate buffered saline), 40 μL of a reaction medium (DMEM, penicillin/streptomycin, 0.3% BSA) containing the test compound was added, and the mixture was preincubated in a CO2 incubator at 37° C. for 30 min. The reaction was started by adding a reaction medium (20 μL) containing 0.1 μCi [^14C]Eicosatrienoic acid, and the mixture was incubated in a CO2 incubator at 37° C. Incubation was performed for 3 hr, the cells were washed twice with 200 μL of PBS, detached with 50 μL of trypsin-EDTA and placed on a 96-deep well block. Furthermore, 20 μL of 2.5N NaOH was added, the plate was sealed and incubated overnight at 55° C. to allow saponification. The fatty acid extraction included acidifying with 10 μL of formic acid, adding chloroform:methanol (1:4), stirring, and further adding 200 μL of pure water to separate into two layers. The operation after development with TLC followed the method of detection system using TLC in a system using a rat liver microsome. A delta-5-desaturase inhibitory rate (%) of 1 μM test compound was determined.

delta-5-desaturase [3] = biological target: T1, delta-5-desaturase; assay: Delta-5-desaturase inhibitory activity using rat liver microsome; format: biochemical; details: test compound 10 μM
Description: Delta-5-Desaturase Inhibitory Activity Using Rat Liver Microsome
The inhibitory activity of the test compound on delta-5-desaturase was measured by the method described below. To a solution of the test compound in DMSO prepared in advance was secondarily diluted with a buffer (300 mM NaH2PO4 [pH 7.4], 450 mM KCl, 30 mM NaF, 9 mM MgCl2, 4.5 mM glutathione [reduced form], 0.3% BSA [fatty acid free, SIGMA]) to give an assay buffer. The assay buffer (10 μl) was dispensed to a polypropylene deep 96-well block, and a rat liver microsome fraction (10 μl) diluted to 3 mg/ml with a microsome buffer (10 mM Tris-HCl [pH 7.4], 1 mM EDTA, 250 mM sucrose) was added. The enzyme reaction was started by adding 9 mM NADH, 9 mM ATP, 0.9 mM CoA, 10 μCi/ml (8E,11E,14E)-(1-^14C)eicosa-8,11,14-trienoic acid (PerkinElmer Inc.) (10 μl). The enzyme reaction was performed for 120 min at room temperature, and discontinued by the addition of 10 μl of 2.5M NaOH. After discontinuation of the reaction, the plate was sealed and incubated overnight at 55° C. to allow saponification. The fatty acid was extracted with solvent based on the Bligh & Dyer method described in Can. J. Biochem. Physiol., vol. 37, page 911 (1959) by adding formic acid:methanol:chloroform (1:6:3) (200 μl), maintaining the single layer state, sufficiently stirring the mixture and adding pure water (120 μl) for separation into two layers. The lower chloroform layer (10 μl) was spotted on a reversed-phase TLC plate (RP-18, 1154230001, Merck Japan, Ltd.), developed with acetonitrile:pure water:acetic acid (95:4.5:0.5), and the dried TLC plate was transcribed on Imaging Plate (Fuji Photo Film Co., Ltd.) for 5 hr or longer. The detection was performed using BAS-5000 (Fuji Photo Film Co., Ltd.), and the obtained spot image was numerically converted by Multi Gauge Ver2.3 (Fuji Photo Film Co., Ltd.) and a delta-5-desaturase inhibitory rate (%) of 10 μM test compound was determined.

T1 sequence (Q920R3 whole entry): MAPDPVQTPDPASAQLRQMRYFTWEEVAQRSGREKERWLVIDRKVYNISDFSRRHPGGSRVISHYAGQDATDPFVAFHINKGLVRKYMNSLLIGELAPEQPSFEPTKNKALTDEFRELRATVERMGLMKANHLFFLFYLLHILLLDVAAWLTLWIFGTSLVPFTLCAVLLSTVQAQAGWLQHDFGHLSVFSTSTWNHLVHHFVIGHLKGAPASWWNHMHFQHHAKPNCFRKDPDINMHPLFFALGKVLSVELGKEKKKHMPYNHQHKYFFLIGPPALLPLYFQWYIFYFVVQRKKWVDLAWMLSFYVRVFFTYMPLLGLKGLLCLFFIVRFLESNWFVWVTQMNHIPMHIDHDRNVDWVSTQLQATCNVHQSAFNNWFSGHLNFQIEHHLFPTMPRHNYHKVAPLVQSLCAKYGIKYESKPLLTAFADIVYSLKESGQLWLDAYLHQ
T2 sequence (O60427 whole entry): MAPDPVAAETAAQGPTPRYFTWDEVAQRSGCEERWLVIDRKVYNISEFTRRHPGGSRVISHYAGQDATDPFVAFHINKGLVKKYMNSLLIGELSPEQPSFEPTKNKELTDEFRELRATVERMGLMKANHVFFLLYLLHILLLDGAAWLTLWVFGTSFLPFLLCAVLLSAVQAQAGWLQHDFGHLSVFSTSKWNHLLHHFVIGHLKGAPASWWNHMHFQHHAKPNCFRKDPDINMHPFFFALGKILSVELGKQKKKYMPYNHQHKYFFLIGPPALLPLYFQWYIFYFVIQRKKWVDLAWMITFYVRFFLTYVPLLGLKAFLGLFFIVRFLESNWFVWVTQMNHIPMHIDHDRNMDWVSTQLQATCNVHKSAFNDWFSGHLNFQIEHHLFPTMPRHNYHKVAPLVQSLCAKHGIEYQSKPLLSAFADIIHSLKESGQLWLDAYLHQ

SMILES | inhibition at 10 µM (delta-5-desaturase [1]) [%] | inhibition at 1 µM (delta-5-desaturase [2]) [%] | inhibition at 10 µM (delta-5-desaturase [3]) [%] | Binding inhibitory activity against compound bind to delta-5-desaturase Binding inhibition rate (%) at 10 μM (delta-5-desaturase [1]; 3 nM tritiated ligand of Reference Example 1, sodium salt) [%] | delta-5-desaturase inhibitory activity (at liver microsome) Inhibitory activity (%) at 10 μM (delta-5-desaturase [3]; sodium salt, 10 µM) [%]
COc1ccc2c(=O)n(-c3ccc(OCC(F)(F)F)cc3)c(SC)nc2n1 [Example 2, 7-methoxy-2-(methylsulfanyl)-3-[4-(2,2,2-trifluoroethoxy)phenyl]pyrido[2,3-d]pyrimidin-4(3H)-one] | 94 | 107 | 102 | – | –
CCCSc1nc2nc(OC)ccc2c(=O)n1-c1ccc(OCC(F)(F)F)cc1 [Example 3, 7-methoxy-2-(propylsulfanyl)-3-[4-(2,2,2-trifluoroethoxy)phenyl]pyrido[2,3-d]pyrimidin-4(3H)-one] | 97 | – | 102 | – | –
COc1ccc2c(=O)n(-c3ccc(OCC(F)(F)F)cc3)c(OCC(F)(F)F)nc2n1 [Example 5, 7-methoxy-2-(2,2,2-trifluoroethoxy)-3-[4-(2,2,2-trifluoroethoxy)phenyl]pyrido[2,3-d]pyrimidin-4(3H)-one] | 93 | 95 | 101 | – | –
CCSc1nc2[nH]c(=O)ccc2c(=O)n1-c1ccc(OCC(F)(F)F)cc1 [Example 6, 2-(ethylsulfanyl)-3-[4-(2,2,2-trifluoroethoxy)phenyl]pyrido[2,3-d]pyrimidine-4,7(3H,8H)-dione] | 97 | 101 | 99 | – | –
CCSc1nc2[nH]c(=O)ccc2c(=O)n1-c1ccc(OCC(F)(F)F)cc1 [Example 7, 2-(ethylsulfanyl)-3-[4-(2,2,2-trifluoroethoxy)phenyl]pyrido[2,3-d]pyrimidine-4,7(3H,8H)-dione sodium salt] | – | – | – | 96 | 98
CCSc1nc2c(ccc(=O)n2C)c(=O)n1-c1ccc(OCC(F)(F)F)cc1 [Example 8, 2-(ethylsulfanyl)-8-methyl-3-[4-(2,2,2-trifluoroethoxy)phenyl]pyrido[2,3-d]pyrimidine-4,7(3H,8H)-dione] | 96 | 103 | 99 | – | –
CCOc1nc2[nH]c(=O)ccc2c(=O)n1-c1ccc(OCC(F)(F)F)cc1 [Example 9, 2-ethoxy-3-[4-(2,2,2-trifluoroethoxy)phenyl]pyrido[2,3-d]pyrimidine-4,7(3H,8H)-dione] | 96 | 97 | 99 | – | –
O=c1ccc2c(=O)n(-c3ccc(OCC(F)(F)F)cc3)c(OCC(F)(F)F)nc2[nH]1 [Example 11, 2-(2,2,2-trifluoroethoxy)-3-[4-(2,2,2-trifluoroethoxy)phenyl]pyrido[2,3-d]pyrimidine-4,7(3H,8H)-dione] | 95 | 98 | 100 | – | –
CS(=O)(=O)CCCOc1nc2[nH]c(=O)ccc2c(=O)n1-c1ccc(OCC(F)(F)F)cc1 [Example 13, 2-[3-(methylsulfonyl)propoxy]-3-[4-(2,2,2-trifluoroethoxy)phenyl]pyrido[2,3-d]pyrimidine-4,7(3H,8H)-dione] | 89 | 88 | 97 | – | –
COCC(F)(F)COc1nc2[nH]c(=O)ccc2c(=O)n1-c1ccc(OCC(F)(F)F)cc1 [Example 14, 2-(2,2-difluoro-3-methoxypropoxy)-3-[4-(2,2,2-trifluoroethoxy)phenyl]pyrido[2,3-d]pyrimidine-4,7(3H,8H)-dione] | – | 103 | 103 | – | –
O=c1ccc2c(=O)n(-c3ccc(OCC(F)(F)F)cc3)c(OCC(F)(F)CO)nc2[nH]1 [Example 17, 2-(2,2-difluoro-3-hydroxypropoxy)-3-[4-(2,2,2-trifluoroethoxy)phenyl]pyrido[2,3-d]pyrimidine-4,7(3H,8H)-dione] | 99 | 103 | 105 | – | –
COc1nc2[nH]c(=O)ccc2c(=O)n1-c1ccc(OCC(F)(F)F)cc1 [Example 18, 2-methoxy-3-[4-(2,2,2-trifluoroethoxy)phenyl]pyrido[2,3-d]pyrimidine-4,7(3H,8H)-dione] | 84 | 95 | 92 | – | –
CCNc1nc2[nH]c(=O)ccc2c(=O)n1-c1ccc(OCC(F)(F)F)cc1 [Example 19, 2-(ethylamino)-3-[4-(2,2,2-trifluoroethoxy)phenyl]pyrido[2,3-d]pyrimidine-4,7(3H,8H)-dione] | 85 | – | 90 | – | –
CC(C)Oc1nc2[nH]c(=O)ccc2c(=O)n1-c1ccc(OCC(F)(F)F)cc1 [Example 20, 2-(1-methylethoxy)-3-[4-(2,2,2-trifluoroethoxy)phenyl]pyrido[2,3-d]pyrimidine-4,7(3H,8H)-dione] | 97 | 97 | 104 | – | –
CSc1nc2c(c(=O)n1-c1ccc(OCC(F)(F)F)cc1)CCC(=O)N2 [Example 21, 2-(methylsulfanyl)-3-[4-(2,2,2-trifluoroethoxy)phenyl]-5,6-dihydropyrido[2,3-d]pyrimidine-4,7(3H,8H)-dione] | 93 | – | 97 | – | –
CCSc1nc2c(c(=O)n1-c1ccc(OCC(F)(F)F)cc1)CCC(=O)N2 [Example 24, 2-(ethylsulfanyl)-3-[4-(2,2,2-trifluoroethoxy)phenyl]-5,6-dihydropyrido[2,3-d]pyrimidine-4,7(3H,8H)-dione] | 95 | 109 | 101 | – | –
CCSc1nc2c(c(=O)n1-c1ccc(OCC(F)(F)F)cc1)SCC(=O)N2 [Example 25, 2-(ethylsulfanyl)-3-[4-(2,2,2-trifluoroethoxy)phenyl]-3H-pyrimido[5,4-b][1,4]thiazine-4,7(6H,8H)-dione] | 98 | 92 | 98 | – | –
CCSc1nc2nc(N)ccc2c(=O)n1-c1ccc(OCC(F)(F)F)cc1 [Example 26, 7-amino-2-(ethylsulfanyl)-3-[4-(2,2,2-trifluoroethoxy)phenyl]pyrido[2,3-d]pyrimidin-4(3H)-one] | 96 | 107 | 102 | – | –
CCCc1nc2c(c(=O)n1-c1ccc(OCC(F)(F)F)cc1)CCC(=O)N2 [Example 40, 2-propyl-3-[4-(2,2,2-trifluoroethoxy)phenyl]-5,6-dihydropyrido[2,3-d]pyrimidine-4,7(3H,8H)-dione] | 89 | 92 | – | – | –
